Entries after “also recorded” stand apart in the source; their conditions may differ.
Experiments:
[1] = tested on: HCT116 cells; test: rAAV-mediated gene targeting of the CCR5 locus in HCT116 cells, correct targeting scored by diagnostic PCR of G418-resistant clones; assay type: cell-based, human
Experimental: The human colon cancer cell line HCT116 was obtained from the American Type Culture Collection and maintained in McCoy's 5A media (Mediatech Inc.) containing 10% heat inactivated fetal calf serum (Cambrex), 2 mM L-glutamine, 100 U/ml penicillin and […] streptomycin (Invitrogen). The cells were grown at 37° C. in a humidified incubator with 5% CO2. Cell lines derived from correct targeting events were grown either in the presence of 1 mg/ml G418 or 1 μg/mL puromycin.
The targeting vectors, Ku70-Neo (Fattah et al., DNA Repair, 2008, 7:762-774) and CCR5-Neo (Fattah et al., PNAS, 2008, 105:8703-8708), were constructed by using the rAAV system as described (Kohli et. al., Nucl. Acids Res., 2004, 32:e3). All virus packaging and infections were performed as described (Kohli et. al., Nucl. Acids Res., 2004, 32:e3).
Genomic DNA for PCR screening was isolated by using phenol extraction followed by ethanol precipitation. DNA-PKcs- and CCR5-targeting events were identified by PCR using conditions described elsewhere (Ruis et. al., Mol. Cell. Biol., 2008, 28:6182-6195; Kohli et. al., Nucl. Acids Res., 2004, 32:e3). The primers used to screen for DNA-PKcs targeting events were LArmR, […] (SEQ ID NO:5) and PKcs81-83F1, […]. (SEQ ID NO:6) The primers used to screen for CCR5 targeting events were CF, GCACCATGCTTGACCCAG (SEQ ID NO:7) and NR, […] (SEQ ID NO:8). […]

[2] = molecular target: T1, DNA-PK complex (Homo sapiens, UniProt P78527); test: DNA-PK complex kinase activity in extracts of treated cells, standard p53 peptide assay; assay type: cell-based; conditions: HCT116 cells treated with 10 μM at time 0 and at 4 hr post-infection
T1 construct: whole cell extracts were prepared from a portion of the cells and assayed for DNA-PK complex kinase activity; endogenous in cells; host or cells: HCT116 (controls: MO59J, MO59K)
Experimental: Nuclear extracts were incubated on ice for 15 min with preswollen dsDNA-cellulose (Sigma). Nuclear extract (100 μg) was used with each sample. Following incubation on ice, the samples were washed twice in Z′ 0.05 buffer (25 mM HEPES-KOH, 50 mM KCl, 10 mM MgCl2, 20% glycerol, 0.1% IGEPAL™, 1 mM dithiothreitol). After the washing steps, the samples were centrifuged and the precipitate was resuspended in 100 μl Z′ 0.05 buffer. […] The wild-type peptide can be phosphorylated by DNA-PK at the serine residue, while the mutant peptide is not recognized by DNA-PK. Following incubation, polyacrylamide gel electrophoresis was carried out. The gel was vacuum dried and exposed to X-ray film. The amount of phosphorylated peptide was quantified using a phosphorimager.

With `O=c1cc(N2CCOCC2)oc2c(-c3cccc4c3sc3ccccc34)cccc12` [NU7441, 8-dibenzothiophen-4-yl-2-morpholin-4-yl-chromen-4-one] the “increase of frequency of gene targeting” value ([1]; DNA-PKcs kinase inhibition by NU7441, rAAV CCR5 vector, compared to wild-type cells) was roughly 7 fold, the “correct gene targeting frequency” value ([1]; HCT116, 10 μM NU7441 at time 0 and again at 4 hr post-infection, rAAV CCR5 vector, 17 of 229 G418-resistant clones) was 7.4% and the “duration of DNA-PK / DNA-PKcs inhibition” value [2] was “a matter of hours; also recorded: several hours”. For the same molecule, the DNA-PK activity ([2]; whole cell extracts) was “nearly completely ablated”.

Reference: patent publication US20130273656A1, “METHOD TO INCREASE GENE TARGETING FREQUENCY” (Regents of the University of Minnesota, priority 2010, published 2013)
